# Source: US20230159510A1, “NOVEL PRMT5 INHIBITORS” (AMGEN INC., priority 2020, published 2023)
# Read-outs that look alike come from different tables or passages of the source.
# Key:
# [1] = system: HCT116 MTAP null cells; test: HCT116 proliferation assay, MTAP null cells (CellTiter-Glo, 6 days); assay type: cell-based; settings: read-out: Protif_ HCT116-MTAP null IC50
# Outline: (§1)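 Compound titrations (top dose 1 or 10 µM, 1:3 dilution, 8 or 9 concentrations) and a DMSO control were applied to cells cultured overnight beforehand in RPMI 1640 with 10% FBS at 37° C, 5% CO2; viability was scored from luminescence.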
# [2] = system: HCT116 WT cells; test: HCT116 proliferation assay, WT cells (CellTiter-Glo, 6 days); assay type: cell-based; settings: read-out: Prolif_HCT116-WT IC50
# Outline: as §1
# [3] = biological target: PRMT5/MEP50 (Homo sapiens, UniProt O14744); test: MTase-Glo methyl transferase assay, Method A (Histone H4 peptide, 1 µM MTA, 24 h pre-incubation); assay type: biochemical; design: made in house; settings: read-out: PRMT5 MTase Glo Ki (nM, Meth. A)
# PRMT5/MEP50, sequence (O14744 whole entry): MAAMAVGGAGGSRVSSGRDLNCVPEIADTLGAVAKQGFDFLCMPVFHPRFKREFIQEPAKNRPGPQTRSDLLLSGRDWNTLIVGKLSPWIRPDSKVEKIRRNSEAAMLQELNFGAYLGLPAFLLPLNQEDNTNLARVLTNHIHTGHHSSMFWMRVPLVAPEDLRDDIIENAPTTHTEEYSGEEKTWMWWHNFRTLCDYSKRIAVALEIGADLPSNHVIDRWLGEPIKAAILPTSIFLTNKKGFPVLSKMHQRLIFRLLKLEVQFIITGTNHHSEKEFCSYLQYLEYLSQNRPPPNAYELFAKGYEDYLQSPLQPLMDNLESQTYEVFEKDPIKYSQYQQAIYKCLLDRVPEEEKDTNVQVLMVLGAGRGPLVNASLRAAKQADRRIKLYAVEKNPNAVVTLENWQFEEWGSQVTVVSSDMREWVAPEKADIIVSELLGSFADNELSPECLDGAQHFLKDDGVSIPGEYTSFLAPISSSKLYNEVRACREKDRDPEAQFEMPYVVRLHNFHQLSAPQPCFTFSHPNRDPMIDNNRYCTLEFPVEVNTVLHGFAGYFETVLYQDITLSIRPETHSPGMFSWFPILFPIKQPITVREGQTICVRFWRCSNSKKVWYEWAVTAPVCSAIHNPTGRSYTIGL
# PRMT5/MEP50, sequence (Q9BQA1 whole entry partner): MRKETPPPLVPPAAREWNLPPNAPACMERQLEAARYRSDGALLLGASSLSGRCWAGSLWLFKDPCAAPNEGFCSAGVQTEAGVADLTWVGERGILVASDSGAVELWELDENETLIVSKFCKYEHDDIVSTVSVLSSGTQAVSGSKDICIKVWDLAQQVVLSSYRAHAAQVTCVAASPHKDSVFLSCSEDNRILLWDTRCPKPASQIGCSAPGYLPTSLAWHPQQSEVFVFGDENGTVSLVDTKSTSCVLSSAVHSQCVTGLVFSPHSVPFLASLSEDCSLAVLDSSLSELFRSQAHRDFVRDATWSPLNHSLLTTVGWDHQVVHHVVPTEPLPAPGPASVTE
# Outline: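 Luminescent SAH detection (MTase-Glo) after a 2 h room-temperature methylation of 1 µM biotinylated H4 (1-21) peptide by 10 nM PRMT5/MEP50 with 5 µM SAM, in 50 mM Tris pH 8.0.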
SMILES,"IC50 ([1]; HCT116-MTAP null, 144 h) [nM]","IC50 ([2]; Homo sapiens, HCT-116, 144 h) [µM]",Ki [3] [nM],IC50 [1] [nM],IC50 [2] [µM]
"C[C@H](c1ncccc1F)N(Cc1ccc(C#N)cn1)C(=O)c1cnc2nc(N)c(Br)cc2c1 [Example 354, 7-amino-6-bromo-N-((5-cyano-2-pyridinyl)methyl)-N-((1R)-1-(3-fluoro-2-pyridinyl)ethyl)-1,8-naphthyridine-3-carboxamide]",378,> 10,0.29,,
"Cc1cc2cc(C(=O)N(Cc3ccc(C(N)=O)cc3)Cc3ccc(C(F)(F)F)cn3)ccc2nc1N [Example 355, 2-amino-N-(4-carbamoylbenzyl)-3-methyl-N-((5-(trifluoromethyl)-2-pyridinyl)methyl)-6-quinolinecarboxamide]",159,3.35,0.2,,
"Cc1cc2cc(C(=O)N(Cc3ccc(C(F)(F)F)cn3)Cc3ccnc4[nH]ccc34)ccc2nc1N [Example 356, 2-amino-3-methyl-N-(1H-pyrrolo[2,3-b]pyridin-4-ylmethyl)-N-((5-(trifluoromethyl)-2-pyridinyl)methyl)-6-quinolinecarboxamide]",35,0.801,0.02,,
"Cc1cc2cc(C(=O)N(Cc3ccc(Br)cn3)CC(C)C)ccc2nc1N [Example 357, 2-amino-N-((5-bromo-2-pyridinyl)methyl)-3-methyl-N-(2-methylpropyl)-6-quinolinecarboxamide]",385,7.05,4.34,,
"Cc1cc2cc(C(=O)N(Cc3ccc(N4CCC(F)(F)C4)cn3)[C@H](C)c3ncccn3)ccc2nc1N [Example 358, 2-amino-N-((5-(3,3-difluoro-1-pyrrolidinyl)-2-pyridinyl)methyl)-3-methyl-N-((1R)-1-(2-pyrimidinyl)ethyl)-6-quinolinecarboxamide]",53,1.37,2.5,,
"Cc1cc2cc(C(=O)N(Cc3ccc(N4CC(F)(F)C4)cn3)[C@H](C)c3ncccn3)ccc2nc1N [Example 359, 2-amino-N-((5-(3,3-difluoro-1-azetidinyl)-2-pyridinyl)methyl)-3-methyl-N-((1R)-1-(2-pyrimidinyl)ethyl)-6-quinolinecarboxamide]",208,4.74,< 0.1,,
"Cc1cc2cc(C(=O)N(Cc3ccc(C(F)(F)F)cn3)[C@H](C)c3ccc(F)cc3)ccc2nc1N [Example 360, 2-amino-N-((1R)-1-(4-fluorophenyl)ethyl)-3-methyl-N-((5-(trifluoromethyl)-2-pyridinyl)methyl)-6-quinolinecarboxamide]",199,4.81,0.08,,
"Cc1cc2cc(C(=O)N(Cc3ccc(C(F)(F)F)cn3)Cc3ccnc4[nH]ccc34)cnc2nc1N [Example 368, N-((1H-pyrrolo[2,3-b]pyridin-4-yl)methyl)-7-amino-6-methyl-N-((5-(trifluoromethyl)pyridin-2-yl)methyl)-1,8-naphthyridine-3-carboxamide]",,7.66,0.14,411,
"Cc1cc2cc(C(=O)N(Cc3ccc4[nH]ncc4c3)Cc3ccc(C(F)(F)F)cn3)ccc2nc1N [Example 369, 2-amino-N-(1H-indazol-5-ylmethyl)-3-methyl-N-((5-(trifluoromethyl)-2-pyridinyl)methyl)-6-quinolinecarboxamide]",,,0.17,138,3.4
"Cc1cc2cc(C(=O)N(Cc3ccc(C(F)(F)F)cn3)Cc3cccc4[nH]ncc34)ccc2nc1N [Example 371, 2-amino-N-(1H-indazol-4-ylmethyl)-3-methyl-N-((5-(trifluoromethyl)-2-pyridinyl)methyl)-6-quinolinecarboxamide]",69,1.39,0.01,,
"Cc1cc2cc(C(=O)N(Cc3ccc(C(F)(F)F)cn3)[C@@H](c3ncccn3)C3CC3)cnc2nc1N [Example 372, 7-amino-N-((R)-cyclopropyl(2-pyrimidinyl)methyl)-6-methyl-N-((5-(trifluoromethyl)-2-pyridinyl)methyl)-1,8-naphthyridine-3-carboxamide]",124,2.41,0.33,,
"Nc1nc2ncc(C(=O)N(Cc3ccc(C(F)(F)F)cn3)[C@@H](c3ncccn3)C3CC3)cc2cc1Br [Example 373, 7-amino-6-bromo-N-((R)-cyclopropyl(2-pyrimidinyl)methyl)-N-((5-(trifluoromethyl)-2-pyridinyl)methyl)-1,8-naphthyridine-3-carboxamide]",159,1.37,0.03,,
"Cc1cc2cc(C(=O)N(Cc3ccc(C(F)(F)F)cn3)[C@H](C)c3ncccn3)ncc2nc1N [Example 374, 2-amino-3-methyl-N-((1R)-1-(2-pyrimidinyl)ethyl)-N-((5-(trifluoromethyl)-2-pyridinyl)methyl)-1,7-naphthyridine-6-carboxamide]",341,8.57,0.48,,
"CCOc1ccc(CN(C(=O)c2ccc3nc(N)c(C)cc3c2)[C@H](C)c2ncccn2)nc1 [Example 375, 2-amino-N-((5-ethoxy-2-pyridinyl)methyl)-3-methyl-N-((1R)-1-(2-pyrimidinyl)ethyl)-6-quinolinecarboxamide]",64,2.13,0.87,,
"Cc1cc2cc(C(=O)N(Cc3ccc(OC4CC4)cn3)[C@H](C)c3ncccn3)ccc2nc1N [Example 376, 2-amino-N-((5-(cyclopropyloxy)-2-pyridinyl)methyl)-3-methyl-N-((1R)-1-(2-pyrimidinyl)ethyl)-6-quinolinecarboxamide]",62,1.51,0.02,,
"CCOc1ccc(CN(C(=O)c2ccc3nc(N)c(C)cc3c2)[C@H](C)c2ncccn2)nn1 [Example 377, 2-amino-N-((6-ethoxy-3-pyridazinyl)methyl)-3-methyl-N-((1R)-1-(2-pyrimidinyl)ethyl)-6-quinolinecarboxamide]",61,2.56,0.07,,
"Cc1cc2cc(C(=O)N(Cc3ccc(NCC(F)(F)F)nn3)[C@H](C)c3ncccn3)ccc2nc1N [Example 378, 2-amino-3-methyl-N-((1R)-1-(2-pyrimidinyl)ethyl)-N-((6-((2,2,2-trifluoroethyl)amino)-3-pyridazinyl)methyl)-6-quinolinecarboxamide]",340,6.96,0.04,,
C[C@H](c1ncccn1)N(Cc1ccc(C(F)F)cn1)C(=O)c1cnc2nc(N)c(Cl)cc2c1 [Example 379],541,> 10,0.89,,

# Second part, the molecule after the results:
"IC50 ([1]; HCT116-MTAP null, 144 h) [nM]","IC50 ([2]; Homo sapiens, HCT-116, 144 h) [µM]",Ki [3] [nM],IC50 [1] [nM],IC50 [2] [µM],SMILES
116,3.22,2.1,,,"Cc1cc2cc(C(=O)N(Cc3ccc(C(F)(F)F)cn3)[C@@H]3CCCC[C@H]3O)ccc2nc1N [Example 361, 2-amino-N-((1R,2R)-2-hydroxycyclohexyl)-3-methyl-N-((5-(trifluoromethyl)-2-pyridinyl)methyl)-6-quinolinecarboxamide]"
106,2.46,0.11,,,"Cc1cc2cc(C(=O)N(Cc3ccc(C(F)(F)F)cn3)[C@@H]3CCC[C@H]3O)ccc2nc1N [Example 362, 2-amino-N-((1R,2R)-2-hydroxycyclopentyl)-3-methyl-N-((5-(trifluoromethyl)-2-pyridinyl)methyl)-6-quinolinecarboxamide]"
326,7.16,0.2,,,"Cc1cc2cc(C(=O)N(Cc3ccc(C(F)(F)F)nn3)[C@@H]3CCC[C@H]3O)ccc2nc1N [Example 363, 2-amino-N-((1R,2R)-2-hydroxycyclopentyl)-3-methyl-N-((6-(trifluoromethyl)pyridazin-3-yl)methyl)quinoline-6-carboxamide]"
227,6.2,0.18,,,"Cc1cc2cc(C(=O)N(Cc3ccc(C(F)F)cn3)[C@@H]3CCC[C@H]3O)ccc2nc1N [Example 364, 2-amino-N-((5-(difluoromethyl)pyridin-2-yl)methyl)-N-((1R,2R)-2-hydroxycyclopentyl)-3-methylquinoline-6-carboxamide]"
391,> 10,0.42,,,"Cc1cc2cc(C(=O)N(Cc3ccc(C#N)cn3)[C@@H]3CCC[C@H]3O)ccc2nc1N [Example 365, 2-amino-N-((5-cyanopyridin-2-yl)methyl)-N-((1R,2R)-2-hydroxycyclopentyl)-3-methylquinoline-6-carboxamide]"
218,7.01,0.18,,,"Cc1cc2cc(C(=O)N(Cc3ccc(Br)nn3)[C@@H]3CCC[C@H]3O)ccc2nc1N [Example 366, 2-amino-N-((6-bromo-3-pyridazinyl)methyl)-N-((1R,2R)-2-hydroxycyclopentyl)-3-methyl-6-quinolinecarboxamide]"
282,> 10,0.41,,,"COc1ccc(CN(C(=O)c2ccc3nc(N)c(C)cc3c2)[C@@H]2CCC[C@H]2O)nn1 [Example 367, 2-amino-N-((1R,2R)-2-hydroxycyclopentyl)-N-((6-methoxypyridazin-3-yl)methyl)-3-methylquinoline-6-carboxamide]"
194,5.62,0.79,,,"COCCN(Cc1ccc(C(F)(F)F)cn1)C(=O)c1ccc2nc(N)c(C)cc2c1 [Example 370, 2-amino-N-(2-methoxyethyl)-3-methyl-N-((5-(trifluoromethyl)-2-pyridinyl)methyl)-6-quinolinecarboxamide]"
